Experimental data reported in patent US7329634B2, “3-Phenyl substituted 3-substituted-4ketolactams and ketolactones” (Bayer CropScience AG, priority 2003, dated 2008).

Key:
[1] = test system: greenhouse red spider mite (Tetranychus urticae); test: Tetranychus test (OP-resistant/spray treatment); format: in vivo; settings: 100 ppm; spray treatment of bean leaf discs (Phaseolus vulgaris); OP-resistant
Protocol: Tetranychus Test (OP-Resistant/Spray Treatment)
• Solvents: 78 parts by weight of acetone • 1.6 parts by weight of dimethylformamide • Emulsifier: 0.5 part by weight of alkylaryl polyglycol ether
To produce a suitable preparation of active compound, 1 part by weight of active compound is mixed with the stated amounts of solvent and emulsifier, and the concentrate is diluted with emulsifier-containing water to the desired concentration.
Discs of the leaves of beans (Phaseolus vulgaris) which are infested by all stages of the greenhouse red spider mite (Tetranychus urticae) are sprayed with a preparation of active compound of the desired concentration.
After the desired period of time, the activity in % is determined. 100% means that all spider mites have been killed; 0% means that none of the spider mites have been killed.

[2] = test system: Meloidogyne incognita; test: Meloidogyne test; format: in vivo; settings: 20 ppm; nematicidal action by formation of galls on lettuce roots; 100% = no galls
Protocol: • Solvents: 78 parts by weight of acetone • 1.5 parts by weight of dimethylformamide • Emulsifier: 0.5 part by weight of alkylaryl polyglycol ether
To produce a suitable preparation of active compound, 1 part by weight of active compound is mixed with the stated amounts of solvent and emulsifier, and the concentrate is diluted with water to the desired concentration.
Vessels are filled with sand, solution of active compound, Meloidogyne incognita egg/larvae suspension and lettuce seeds. The lettuce seeds germinate and the plants develop. On the roots, galls develop.
After the desired period of time, the nematicidal action is determined in % by the formation of galls. 100% means that no galls have been found; 0% means that the number of galls on the treated plants corresponds to that of the untreated control.

In the case of `CCc1cc(Br)cc(Br)c1C1(Cl)C(=O)NC(C)(C)C1=O` (centres unmarked) [Ex. I-1-1], the “Kill rate in % after 4d” value [1] is reported as 80% and the “Effect in % after 14d” value [2] is reported as 100%.
